This note sets out measurements from patent US20090247520A1, “INHIBITORS OF ANTIGEN RECEPTOR-INDUCED NF-kappa B ACTIVATION” (The Burnham Institute for Medical Research, priority 2008, published 2009).

The subject of experiment [1] is p65-DNA binding activity induced by TNF. Put plainly: NF-κB p65 DNA-binding activity induced by TNF. The format is cell-based. To be noted: data not shown. Here is the method: NF-κB DNA-binding activity assays. Nuclear extracts were prepared from 10 cm^2 plates of confluent cells using a kit (Active Motif, Carsbad, Calif.). The total protein content of nuclear fractions was quantified by the Bradford method, followed by storage at −80° C. NF-κB DNA-binding activity was measured in nuclear extracts (10 μg protein) using an immunoassay method (TransAM Kit [Active Motif]) employing 96 well plates coated with double-strand oligodeoxynucleotides containing NF-κB consensus binding site (5′-[…]-3′) and anti-p65 antibody, which was detected by secondary horseradish peroxidase (HRP)-conjugated antibody, using a calorimetric substrate with absorbance read at 450 nm within 5 minutes using a spectrophotometer, SpectraMax M5 (Molecular Devices, Sunnyvale, Calif.).

For another experiment, the target named is T1, purified luciferase (Photinus pyralis, UniProt P08659).
T1 construct: purchased Perkin Elmer
Briefly: Luciferase inhibition counter screen, in vitro enzymatic assay. The format is biochemical. To be noted: not shown. Here is the method: Counter Screening and Secondary Assays. To counter-screen for inhibitors of the TNF pathway, HEK293-NFκB-Luc cells were seeded at 10^5 cells per well in 90 μL medium in white 96-well plates (Greiner Bio-One) and cultured overnight, before adding compounds (5 μL in medium) to cells. After 2 h incubation, 5 μL TNF (200 ng/mL) (R&D Systems) was added (final concentration 10 ng/mL) and cells were incubated for 16 h. Luciferase activity was measured using Britelite kit (Perkin Elmer). To counter-screen for inhibitors of NF-κB induced by TLR4, CD40, NOD1, NOD2, cIAP2/MALT, or XIAP/TAB, the 293-NF-κB-luc cells cultured in 96 well plates as above were pretreated with compounds for 2 h and then transfected using Lipofectamine 2000 with various plasmids including pcDNA3 (“empty vector” control) or plasmids encoding CD4-TLR4, CD40, NOD1, NOD2, cIAP2/MALT, XIAP/TAB, using 0.2 μL of transfection reagent containing 100 ng DNA per well. Cells were cultured in medium containing CID-2858522 or other compounds and luciferase activity was measured 48 h later. […] Reactions were then initiated by addition of 50 μL 160 nM ATP (Sigma) in PBS and luciferase activity was measured 2 h later using a luminometer (LJL Biosystems, Sunnyvale, Calif.).

For the next experiment, the target named is T2, TLK1 (Homo sapiens, UniProt Q9UKI8).
T2 construct: proprietary tag (Ambit); purchased Ambit, Inc
Briefly: KINOMEscan competition binding assay, TLK1. The source says: CID-2858522 is not a potent protein kinase inhibitor. Protein kinases play critical roles in NF-κB activation. PKCs are proximal kinases in the NF-κB pathways activated by PMA/Ionomycin and by T- and B-cell antigen receptors, while the IKKs are distal kinases operating in the terminal segments of these and other NF-κB activation pathways. We therefore tested whether CID-2858522 inhibits members of these kinase families by in vitro kinase assays. For these experiments, we tested PKC-beta and PKC-theta (the PKC family members implicated in TCR/BCR signaling), and IKK-beta (a component of the IKK complex) (FIG. 6). […] In addition to assessing these three kinases by conventional in vitro kinase assays, a kinome screen was performed using a high throughput screening method, KINOMEscan™, which is an active-site dependent competition binding assay in which human kinases of interest are fused to a proprietary tag (Ambit). The amount of kinase bound to an immobilized, active-site directed ligand is measured in the presence and absence of the test compound. […] Thus, CID-2858522 inhibits none of the protein kinases previously implicated in regulating NF-κB.
In Vitro Kinase Assays. PKC-beta, PKC-theta and IKK-beta in vitro kinase assays were performed using the HTScan Kinase Assay Kit (Cell Signaling, Danvers, Mass.) according to manufacturer's protocols. […]

Experiment [2] concerns phosphorylation of CARMA1. Put plainly: PMA-induced CARMA1 phosphorylation in HEK293 cells (immunoblot). The format is cell-based. To be noted: CID-2858522 4 μM. Here is the method: FIG. 7. CID-285852 inhibits IKKβ phosphorylation induced by PKC activators. (A) HEK293 cells were cultured in 0.5% FBS medium for 24 h and then treated with CID-2858522 (4 μM) or PKC inhibitor, Bisindolylmaleimide I (1 μM) for 2 hrs followed by PMA/Ionomycin (10 ng/mL; 5 ng/mL) for 2 h. Cell lysates were subjected to immunoprecipitation using anti-CARMA1 antibody and analyzed by immunoblotting with anti-phospho-CARMA1 antibody or anti-CARMA1 antibody. (B-E) HEK293 cells were transfected with plasmids encoding myc-CARMA1 in combination with plasmids encoding various other proteins including Caspase-8 (cys287ala) (B), HA-IKK-γ (C), HA-TAK1 (D), and TRAF6 (E). After 36 h. cells were cultured in 0.5% FBS medium for 12 h and then treated with CID-2858522 (4 μM) or Bisindolylmaleimide I (1 μM) for 2 hrs, followed by PMA/Ionomycin treatment (10 ng/mL; 5 ng/mL) for 2 hrs. Cell lysates were immunoprecipated using anti-myc antibody and analyzed by immunoblotting using anti-Caspase8 (B), anti-HA (C,D), or anti-TRAF6 (E) antibodies. […] Cell lysates were normalized for protein content and analyzed by immunoblotting using anti-FLIP and anti-alpha-tubulin antibodies. […] Cell lysates were immunoprecipitated using anti-IKK-β and analyzed by immunoblotting using anti-phospho-IKK-β antibody or anti-IKK-β antibody (as loading control). […]
(Immunoblotting shows a protein as a band on a membrane.)

T1 sequence (P08659 whole entry, species assumed): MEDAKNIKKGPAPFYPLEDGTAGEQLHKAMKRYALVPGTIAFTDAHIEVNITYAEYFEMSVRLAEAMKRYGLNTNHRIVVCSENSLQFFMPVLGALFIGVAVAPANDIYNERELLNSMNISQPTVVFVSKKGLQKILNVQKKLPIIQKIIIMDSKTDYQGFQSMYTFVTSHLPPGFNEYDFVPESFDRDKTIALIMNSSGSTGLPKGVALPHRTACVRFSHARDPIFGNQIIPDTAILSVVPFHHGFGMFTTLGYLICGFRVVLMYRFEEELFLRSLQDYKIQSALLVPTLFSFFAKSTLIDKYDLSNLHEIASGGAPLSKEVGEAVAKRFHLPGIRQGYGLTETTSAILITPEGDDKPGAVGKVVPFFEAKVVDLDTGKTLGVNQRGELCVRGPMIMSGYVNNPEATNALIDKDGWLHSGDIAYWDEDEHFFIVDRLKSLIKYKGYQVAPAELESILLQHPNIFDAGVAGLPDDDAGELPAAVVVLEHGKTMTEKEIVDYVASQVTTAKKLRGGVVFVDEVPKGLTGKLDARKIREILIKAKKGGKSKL
T2 sequence (Q9UKI8 whole entry): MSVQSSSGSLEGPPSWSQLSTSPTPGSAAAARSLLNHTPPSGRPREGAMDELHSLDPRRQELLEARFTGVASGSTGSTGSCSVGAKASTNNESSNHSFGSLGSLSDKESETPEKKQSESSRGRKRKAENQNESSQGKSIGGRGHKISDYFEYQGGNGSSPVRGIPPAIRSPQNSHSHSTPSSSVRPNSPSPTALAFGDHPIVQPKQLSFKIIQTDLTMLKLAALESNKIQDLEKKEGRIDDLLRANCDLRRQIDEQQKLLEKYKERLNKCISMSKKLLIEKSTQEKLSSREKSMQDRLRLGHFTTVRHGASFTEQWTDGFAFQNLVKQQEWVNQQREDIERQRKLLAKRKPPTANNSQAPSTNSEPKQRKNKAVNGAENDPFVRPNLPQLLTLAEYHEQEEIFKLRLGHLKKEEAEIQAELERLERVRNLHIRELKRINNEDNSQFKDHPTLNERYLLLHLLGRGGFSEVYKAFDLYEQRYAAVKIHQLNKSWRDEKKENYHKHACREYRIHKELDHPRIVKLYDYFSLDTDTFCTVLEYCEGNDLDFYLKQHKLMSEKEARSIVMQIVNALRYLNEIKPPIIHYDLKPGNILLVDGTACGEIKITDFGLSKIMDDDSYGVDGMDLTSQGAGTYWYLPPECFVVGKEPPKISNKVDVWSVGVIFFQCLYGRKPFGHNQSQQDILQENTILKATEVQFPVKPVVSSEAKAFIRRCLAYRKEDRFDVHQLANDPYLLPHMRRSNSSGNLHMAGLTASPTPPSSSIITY

The inhibition is the share of the control response that was lost under treatment. Low values mean little suppression, high ones strong suppression. For the compound `Cc1cc2nc(NCCCO)n(CC(=O)c3cc(C(C)(C)C)c(O)c(C(C)(C)C)c3)c2cc1C` [Compound 1, 2-(2-(3-Hydroxypropylamino)-5,6-dimethyl-1H-benzo[d]imidazol-1-yl)-1-(3,5-di-tert-butyl-4-hydroxyphenyl)ethanone], in experiment [1], the “block of p65-DNA binding activity induced by TNF” value is listed as “did not block”. In addition, on purified luciferase, the “inhibition of luciferase activity” value is listed as “did not inhibit”. On TLK1, this compound returned an inhibition at 10 µM of 70%. In addition, the “effect on PMA-induced phosphorylation of CARMA1” value in experiment [2] is on record as “no effect”.
